US9440963B2, “Compositions, formulations and methods for treating ocular diseases” (Aerpio Therapeutics Inc., priority 2013, dated 2016)
Values after ≈ are worked out from the molar mass of the structure shown. Read-outs that look alike come from different tables or passages of the source.

Assays:
[1] = Room temperature aqueous solubility with solubilizing agents (Example 36); format: physicochemical
From the text: The room temperature aqueous solubility (mg/mL) of the a compound (4-{(S)-2-[(S)-2-methoxycarbonylamino)-3-phenylpropanamido]-2-[2-(thiophen-2-yl)thiazol-4-yl]ethyl}phenylsulfamic acid) in water, HPβCD, Poloxamer 407, and sulfobutylether-β-cyclodextrin, is provided in TABLE XXVII. Solubility in saline for the test compound is reduced presumably due to the common ion effect.
The solubility (mg/mL) of the test compound in mixtures of HPβCD and PEG400 is illustrated in TABLE XXVIII.

[2] = Chemical and physical stability of aqueous solution formulations (Table XXIX); format: physicochemical; settings: for Concentration of test compound in aqueous solution formulation shown to be chemically and physically stable: chemically stable 1 month at 50 °C, physically stable at 5 °C, ambient, 50 °C
Protocol: TABLE XXIX contains aqueous solution formulations of the test compound above with the denoted solvents that have been prepared and shown to be chemically stable through 1 month at 50° C., and physically stable at 5° C., at ambient temperature, and at 50° C. […] The target pH range for the formulations is pH 7+/−0.5 pH units.

[3] = human, in vivo
Protocol: FIG. 9 depicts the mean plasma concentration over time after a single dose of a 5 mg, a 15 mg, a 22.5 mg, or a 30 mg of a test compound on day 14, respectively, in a multiple ascending dose study in patients with diabetic macular edema.
A phase 1B/2A open-label, Multiple-ascending dose cohort study to assess the pharmacokinetics and pharmacodynamics effect of 28-day repeat subcutaneous dose of 4-{(S)-2-[(S)-2-(methoxycarbonylamino)-3-phenylpropanamido]-2-[2-(thiophen-2-yl)thiazol-4-yl]ethyl}phenylsulfamic acid (drug) in subjects with diffuse diabetic macular edema (DME).
The aim of this study was to evaluate tolerability, safety, efficacy and pharmacokinetics and pharmacodynamics in patients with DME involving the center of the fovea with central subfield mean thickness ≧325 μm measured by spectral domain-optical coherence tomography (SD-OCT).
Twenty-four patients were administered ascending doses of test compound twice daily (BID) for 28 days in 4 separate cohorts at 5, 15, 22.5 or 30 mg BID, respectively.
Drug was supplied as a lyophilized powder in a vial for reconstitution. Each vial contained 100 mg drug and 250 mg HPβCD. Vials were reconstituted with sterile 5% dextrose for cohort 1 (5 mg BID) and with sterile diluent containing 5% HPβCD/1% dextrose for cohorts 2, 3, and 4 (15 mg, 22.5 mg and 30 mg BID).
For cohorts 1 (5 mg BID) and 2 (15 mg BID) the volume administered for each dose was 0.5 ml (10 and 30 mg/ml, respectively) and for cohorts 3 and 4 the volume was 0.75 ml (30 and 40 mg/ml, respectively).
Blood samples for pharmacokinetic profiling were taken pre-dose (0), 15 minutes, 1 hour, 2 hours, 3 hours and 4 hours after administration of the first dose on day 14.
Plasma drug concentration was determined with a validated LC/MS-MS method. The pharmacokinetic (PK) parameters were determined using a standard non-compartmental method, and Cmax, AUClast (with last being from time 0 to the last quantifiable point), AUCinf, were analyzed statistically using log-transformed data.

CCc1csc([C@H](Cc2ccc(NS(=O)(=O)O)cc2)NC(=O)[C@H](Cc2ccccc2)NC(=O)OC)n1
Solubility [1]: 89 mg/mL (≈ 167 mM) | Solubility ([1]; aqueous with cosolvent or surfactant or cyclodextrin, Solubility): 60 mg/mL (≈ 113 mM) | Solubility ([1]; water, Solubility): 45 mg/mL (≈ 84.5 mM)

COC(=O)N[C@@H](Cc1ccccc1)C(=O)N[C@@H](Cc1ccc(NS(=O)(=O)O)cc1)c1csc(-c2cccs2)n1 [test compound]
solubility with either HPβCD or PEG400 individually [1]: increase in solubility | Solubility ([1]; 0% HPβCD, 15% PEG400): 30 mg/mL (≈ 51.1 mM) | Solubility ([1]; 0% HPβCD, 30% PEG400): 68 mg/mL (≈ 116 mM) | Solubility ([1]; 15% HPβCD, 0% PEG400): 59 mg/mL (≈ 101 mM) | Solubility ([1]; 15% HPβCD, 5% PEG400): 57 mg/mL (≈ 97.2 mM) | Solubility ([1]; 15% HPβCD, 10% PEG400): 34 mg/mL (≈ 57.9 mM) | Solubility ([1]; 15% HPβCD, 15% PEG400): 6 mg/mL (≈ 10.2 mM) | Solubility ([1]; room temperature, aqueous, 0% HPβCD (water)): 27 mg/mL (≈ 46 mM) | Solubility ([1]; room temperature, aqueous, 10% HPβCD): 45 mg/mL (≈ 76.7 mM) | Solubility ([1]; room temperature, aqueous, 15% SBE-β-CD): 44 mg/mL (≈ 75 mM) | Solubility ([1]; room temperature, aqueous, 20% HPβCD): 57 mg/mL (≈ 97.2 mM) | Solubility ([1]; room temperature, aqueous, 20% Poloxamer 407): 44 mg/mL (≈ 75 mM) | Solubility ([1]; room temperature, aqueous, 30% HPβCD): 72 mg/mL (≈ 123 mM) | solubility on addition of PEG400 to a mixture with HPβCD ([1]; solubility inversely proportional to the amount of PEG400): erosion of solubility | Physical and chemical stability of formulation ([2]; 4.5% mannitol, 5 mg/mL test compound, one week at room temperature and one week at 50 °C): ^bPhysically and chemically stable through one week at room temperature and one week at 50 °C | Concentration of test compound in aqueous solution formulation shown to be stable ([2]; 4.5% mannitol, one week at room temperature and one week at 50 °C): 5 mg/mL^b | Concentration of test compound in aqueous solution formulation shown to be chemically and physically stable ([2]; 10% HPβCD): 15000 µg/mL | Concentration of test compound in aqueous solution formulation evaluated for stability ([2]; 15% HPβCD/0.25% saline, evaluated for short-term physical stability at 5 °C and ambient temperature): 40 mg/mL^a | Concentration of test compound in aqueous solution formulation shown to be chemically and physically stable ([2]; 25% HPβCD): 50000 µg/mL | Concentration of test compound in aqueous solution formulation shown to be chemically and physically stable ([2]; 30% HPβCD): 50000 µg/mL | overall exposures versus dose [3]: approximately dose proportional | AUCinf Geometric Mean ([3]; 5 mg): 102.92 ng·h/mL | AUCinf Mean ([3]; 5 mg): 106.46 ng·h/mL | AUCinf Median ([3]; 5 mg): 100.55 ng·h/mL | AUCinf Min-Max ([3]; 5 mg): 70.1 to 155.1 ng·h/mL | AUClast Geometric Mean ([3]; 5 mg): 98.63 ng·h/mL | AUClast Mean ([3]; 5 mg): 101.56 ng·h/mL | AUClast Median ([3]; 5 mg): 97.03 ng·h/mL | AUClast Min-Max ([3]; 5 mg): 67.9 to 142.6 ng·h/mL | Cmax Geometric Mean ([3]; 5 mg): 0.07448 µg/mL | Cmax Mean ([3]; 5 mg): 0.07775 µg/mL | Cmax Median ([3]; 5 mg): 0.07344 µg/mL | Cmax Min-Max ([3]; 5 mg): 0.0447 to 0.1081 µg/mL | t1/2 Mean (SD) ([3]; 5 mg): 0.85 (0.186) hr | t1/2 Median ([3]; 5 mg): 49.8 min | t1/2 Min-Max ([3]; 5 mg): 36 to 66 min | tmax Mean (SD) ([3]; 5 mg): 0.31 (0.134) hr | tmax Median ([3]; 5 mg): 15.6 min | tmax Min-Max ([3]; 5 mg): 18 to 36 min | AUCinf Geometric Mean ([3]; 15 mg): 245.89 ng·h/mL | AUCinf Mean ([3]; 15 mg): 255.08 ng·h/mL | AUCinf Median ([3]; 15 mg): 232.89 ng·h/mL | AUCinf Min-Max ([3]; 15 mg): 176.8 to 387.4 ng·h/mL | AUClast Geometric Mean ([3]; 15 mg): 230.97 ng·h/mL | AUClast Mean ([3]; 15 mg): 239.08 ng·h/mL | AUClast Median ([3]; 15 mg): 213.32 ng·h/mL | AUClast Min-Max ([3]; 15 mg): 170.4 to 353.3 ng·h/mL | Cmax Geometric Mean ([3]; 15 mg): 0.14986 µg/mL | Cmax Mean ([3]; 15 mg): 0.15657 µg/mL | Cmax Median ([3]; 15 mg): 0.13805 µg/mL | Cmax Min-Max ([3]; 15 mg): 0.1025 to 0.2263 µg/mL | t1/2 Mean (SD) ([3]; 15 mg): 0.96 (0.282) hr | t1/2 Median ([3]; 15 mg): 53.4 min | t1/2 Min-Max ([3]; 15 mg): 36 to 84 min | tmax Mean (SD) ([3]; 15 mg): 0.27 (0.039) hr | tmax Median ([3]; 15 mg): 15 min | tmax Min-Max ([3]; 15 mg): 12 to 18 min | AUCinf Geometric Mean ([3]; 22.5 mg): 454.63 ng·h/mL | AUCinf Mean ([3]; 22.5 mg): 498.12 ng·h/mL | AUCinf Median ([3]; 22.5 mg): 358.19 ng·h/mL | AUCinf Min-Max ([3]; 22.5 mg): 322.4 to 813.8 ng·h/mL | AUClast Geometric Mean ([3]; 22.5 mg): 400.80 ng·h/mL | AUClast Mean ([3]; 22.5 mg): 437.51 ng·h/mL | AUClast Median ([3]; 22.5 mg): 328.84 ng·h/mL | AUClast Min-Max ([3]; 22.5 mg): 302.7 to 789.6 ng·h/mL | Cmax Geometric Mean ([3]; 22.5 mg): 0.21572 µg/mL | Cmax Mean ([3]; 22.5 mg): 0.2374 µg/mL | Cmax Median ([3]; 22.5 mg): 0.2032 µg/mL | Cmax Min-Max ([3]; 22.5 mg): 0.1427 to 0.4005 µg/mL | t1/2 Mean (SD) ([3]; 22.5 mg): 0.84 (0.093) hr | t1/2 Median ([3]; 22.5 mg): 52.2 min | t1/2 Min-Max ([3]; 22.5 mg): 42 to 54 min | tmax Mean (SD) ([3]; 22.5 mg): 0.45 (0.370) hr | tmax Median ([3]; 22.5 mg): 16.2 min | tmax Min-Max ([3]; 22.5 mg): 18 to 60 min | AUCinf Geometric Mean ([3]; 30 mg): 824.87 ng·h/mL | AUCinf Mean ([3]; 30 mg): 828.62 ng·h/mL | AUCinf Median ([3]; 30 mg): 834.70 ng·h/mL | AUCinf Min-Max ([3]; 30 mg): 729.7 to 921.4 ng·h/mL | AUClast Geometric Mean ([3]; 30 mg): 657.33 ng·h/mL | AUClast Mean ([3]; 30 mg): 669.37 ng·h/mL | AUClast Median ([3]; 30 mg): 700.90 ng·h/mL | AUClast Min-Max ([3]; 30 mg): 444.1 to 796.1 ng·h/mL | Cmax Geometric Mean ([3]; 30 mg): 0.31424 µg/mL | Cmax Mean ([3]; 30 mg): 0.32048 µg/mL | Cmax Median ([3]; 30 mg): 0.32085 µg/mL | Cmax Min-Max ([3]; 30 mg): 0.2209 to 0.4261 µg/mL | t1/2 Mean (SD) ([3]; 30 mg): 1.07 (0.338) hr | t1/2 Median ([3]; 30 mg): 55.8 min | t1/2 Min-Max ([3]; 30 mg): 48 to 90 min | tmax Mean (SD) ([3]; 30 mg): 0.63 (0.391) hr | tmax Median ([3]; 30 mg): 38.4 min | tmax Min-Max ([3]; 30 mg): 12 to 60 min | Tmax ([3]; sc, 30 mg): 12 to 60 min | elimination half-life ([3]; sc, 30 mg): 36 to 90 min
